Literature values, collected in patent US20180318238A1, “METHODS FOR REDUCING SEQUELAE OF INTRA-DIALYTIC HYPOTENSION” (priority 2015, published 2018).

Settings: intravenous, dogs, all doses used; from WO 98/13036

**Q.** With S-ethylisothiouronium diethylphosphate as the substance, how does the “Effect on arterial blood pressure” value read?
**A.** pronounced hypertensive effect at all doses used
